Test results published in patent US9687480B2, “Chiral 1-(4-methylphenylmethyl)-5-oxo-{N-[(3-t-butoxycarbonyl-aminomethyl)]-piperidin-1-yl)-pyrrolidine as inhibitors of collagen induced platelet activation and adhesion” (Council of Scientific & Industrial Research, priority 2011, dated 2017).

Experiments:
[1] = tested on: hyperlipidemic hamsters; assay: Arterio-venous shunt model in hyperlipidemic hamsters; type: in vivo
[2] = tested on: human platelet rich plasma (Convulxin, GP VI agonist); assay: Convulxin induced platelet aggregation, human platelet rich plasma (in vitro); type: cell-based; conditions: at 500 μM
Method: The reaction was allowed to proceed for at least 5 min, and the extent of aggregation was expressed in light-transmission units (Ivandic B T, Schlick P, Starltz P, Kurz K, Katas H A, Giannitsis E. Determination of clopidogrel resistance by whole blood platelet aggregometry and inhibitors of the P2Y12 receptor. Clinical Chemistry 2006: 52:383-88).
The percentage of aggregation was calculated by using following formula: Percent Aggregation=A/B×100 Where, A is the number of division traversed by the label on chart in the presence of Inducer & B is the total number of divisions (80). Platelet Aggregation Studies (FIG. 3) a) Platelet Aggregation (Human, In Vitro) (FIG. 3a (i) (ii) (iii))

[3] = tested on: collagen stimulated platelets; assay: Immunoblotting: tyrosine phosphorylation of platelet proteins after collagen stimulation; type: cell-based, human; conditions: 10-100 μM
Method: Platelet rich plasma (2×10^8/ml) was pre-incubated with test compound (10-100 μM) or the isovolumetric solvent control (0.5% DMSO) for 5 minutes, followed by the addition of collagen, to trigger platelet activation. The reaction was stopped by the addition of ice cold stop buffer (5 mM EDTA, 5 mM EGTA) and the suspensions were centrifuged at 800×g for 10 minutes and then immediately resuspended in 300 μl of lysis buffer (50 mM HEPES, 5 mM EDTA, 50 mM NaCl, 1% Triton X-100, 10 μg/ml aprotinin, 1 mM PMSF, 10 μg/ml leupeptin, 10 mM NaF, 1 mM sodium orthovanadate, and 5 mM sodium pyrophosphate) (Ezumi Y. Shindoh K, Tsuji M, and Takayama H Physical and Functional Association of the Src Family Kinases Fyn and Lyn with the Collagen Receptor Glycoprotein VI-Fc Receptorg Chain Complex on Human Platelets. J. Exp. Med. 1998; 188: 287-[…]). Lysates were centrifuged at 12,000×g for 5 minutes, after which the supernatants were dissolved in Laemmeli sample buffer (Laemmeli, 1970). […] Immunoreactive bands were detected by chemiluminescence using the ECL-enhanced chemiluminescence system (Inoue K, Ozaki Y, Satoh K, u Y, Yatomi Y, Shin Y and Morita T Signal Transduction Pathways Mediated by Glycoprotein Ia/IIa in Human Platelets: Comparison with those of Glycoprotein VI. Biochem. I and Biophys. Res. Comm. 1999; 256: 114-120).

Question: Which “Arterio-venous shunt model in hyperlipidemic hamsters” value ([1]; Table 2 summary, Even at 10 μM) does the source give for `Cc1ccc(CN2C(=O)CC[C@H]2C(=O)N2CCC[C@@H](CNC(=O)OC(C)(C)C)C2)cc1` [Compound 6] here?
Answer: Its value is “Protective”.

Question: And the thrombus weight ([1]; hyperlipidemic hamsters, compound 6 at 10 μM/kg)?
Answer: The thrombus weight was “significantly reduced the thrombus weight”.

Question: What about the “inhibition of convulxin induced platelet aggregation” value [2] of the same compound?
Answer: The value was “does not significantly inhibit”.

Question: And the “tyrosine phosphorylation of platelet proteins” value [3]?
Answer: Its value is “attenuated the tyrosine phosphorylation”.
